The target of one assay is T1, NADPH oxidase 1 (Homo sapiens, UniProt Q9Y5S8).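 Also: Cell-based assay with luminescence read-out, IC50 derived from inhibitor dose-response curves; intracellular ROS from endogenous NOX1 in intact HT29 colon cancer cells; potency of inhibitors that lower the ROS luminescence signal.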
T1 sequence (Q9Y5S8 whole entry): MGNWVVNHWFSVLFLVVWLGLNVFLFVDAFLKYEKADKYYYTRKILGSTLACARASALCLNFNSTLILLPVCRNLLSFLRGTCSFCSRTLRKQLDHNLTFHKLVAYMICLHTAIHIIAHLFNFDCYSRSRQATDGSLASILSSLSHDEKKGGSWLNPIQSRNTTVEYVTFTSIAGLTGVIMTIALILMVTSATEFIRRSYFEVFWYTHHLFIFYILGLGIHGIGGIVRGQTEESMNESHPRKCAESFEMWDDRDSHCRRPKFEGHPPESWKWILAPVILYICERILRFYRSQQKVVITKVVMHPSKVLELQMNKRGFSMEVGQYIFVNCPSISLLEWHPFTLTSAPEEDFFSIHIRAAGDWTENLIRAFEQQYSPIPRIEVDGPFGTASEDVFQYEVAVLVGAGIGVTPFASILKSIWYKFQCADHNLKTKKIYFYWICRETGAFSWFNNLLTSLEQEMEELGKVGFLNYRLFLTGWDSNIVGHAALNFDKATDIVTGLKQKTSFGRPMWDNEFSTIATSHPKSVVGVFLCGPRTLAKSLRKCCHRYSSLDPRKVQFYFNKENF
Type of assay: functional, cell-based.

The target in assay [1] is 5-hydroxytryptamine receptor 1A (Homo sapiens, UniProt P08908). Type of assay: functional.
5-hydroxytryptamine receptor 1A, sequence (P08908 whole entry): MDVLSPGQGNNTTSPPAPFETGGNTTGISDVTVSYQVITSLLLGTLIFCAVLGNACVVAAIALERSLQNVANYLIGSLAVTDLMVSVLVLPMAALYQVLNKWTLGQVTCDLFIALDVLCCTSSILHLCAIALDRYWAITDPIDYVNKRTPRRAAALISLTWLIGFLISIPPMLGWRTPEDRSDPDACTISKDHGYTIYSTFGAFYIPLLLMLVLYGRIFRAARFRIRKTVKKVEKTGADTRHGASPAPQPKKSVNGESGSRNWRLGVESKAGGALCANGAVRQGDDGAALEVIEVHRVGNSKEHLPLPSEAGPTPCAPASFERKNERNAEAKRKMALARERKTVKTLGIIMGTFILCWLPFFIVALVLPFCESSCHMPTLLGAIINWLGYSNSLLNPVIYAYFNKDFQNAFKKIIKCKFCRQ
Assay [2] concerns the target T2, Estrogen receptor beta (Homo sapiens, UniProt Q92731).
The target in assay [3] is T2, Estrogen receptor beta. Briefly: ERβ–SRC-3 coactivator interaction inhibitors, confirmation, orthogonal assay, biochemical, ELISA, streptavidin-HRP readout (AID 1060). (In general: An ELISA detects its analyte on a solid surface through an enzyme-linked reagent.)
The next assay relates to H9c2. The experiment in a line: cells. Type of assay: functional, cell-based. The following applies: Rattus norvegicus, H9c2, Myocardium.
Assay [4] has as its system BJ. The experiment in a line: cytotoxicity toward BJ-TERT fibroblasts, dose response, cell-based, RAS-independent, luminescence (AID 1933). Type of assay: functional. The following applies: Homo sapiens.
Assay [5] relates to BJ. The experiment in a line: cytotoxicity toward Ras-transformed BJeLR fibroblasts, dose response, cell-based, alamar blue fluorescence, cherrypicked samples (AID 2631).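 Also: confirmatory dose-response assay in RAS-dependent BJ fibroblasts engineered with TERT, LT and ST, with cytotoxicity read by fluorescence.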 In kind it is functional. The following applies: Homo sapiens. On the technique in general: The colour change of resazurin is a common sign of viable cells or microbes.
The test system of assay [6] is BJ. The experiment in a line: cytotoxicity toward BJ-TERT-LT-ST fibroblasts, dose response, cell-based, RAS-independent, luminescence (AID 1935).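 Also: BJ fibroblasts immortalized with TERT plus LT and ST oncogenes.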 The following applies: Homo sapiens. Type of assay: functional.
A short description of assay [7]: cytotoxicity toward DRD oncogenic fibroblasts, dose response, cell-based, non-viral oncogenic, luminescence (AID 1934). Type of assay: functional. The following applies: Homo sapiens.
Assay [8] relates to BJ. Briefly: cells. In kind it is functional, cell-based. The following applies: Homo sapiens.
Assay [9] can be described thus: Luminescence-based dose response cell-based high throughput screening assay for cytotoxic compounds using the IEC-6 intestinal epithelial cell line. [Related pubchem assays: 1858 (Summary AID.), 1825 (Counterscreen.), 1907 (Confirmation screen.)]. Type of assay: functional. A general note: Counterscreens check selectivity or assay interference.
The target in a further assay is T3, Streptokinase A (Streptococcus pyogenes serotype M1, UniProt P10520).
T3 sequence (P10520 whole entry): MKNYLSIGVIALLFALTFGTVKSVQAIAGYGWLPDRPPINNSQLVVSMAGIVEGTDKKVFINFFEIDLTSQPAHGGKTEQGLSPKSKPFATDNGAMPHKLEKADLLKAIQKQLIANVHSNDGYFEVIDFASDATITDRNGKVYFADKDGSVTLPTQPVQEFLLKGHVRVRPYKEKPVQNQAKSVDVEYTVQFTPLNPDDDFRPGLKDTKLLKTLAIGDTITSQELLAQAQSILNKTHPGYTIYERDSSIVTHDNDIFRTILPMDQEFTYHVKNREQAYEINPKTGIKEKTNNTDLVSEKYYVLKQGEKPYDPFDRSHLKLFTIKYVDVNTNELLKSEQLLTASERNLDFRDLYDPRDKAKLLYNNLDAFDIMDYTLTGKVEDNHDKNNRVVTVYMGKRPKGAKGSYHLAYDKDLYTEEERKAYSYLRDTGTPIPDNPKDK
The experiment in a line: S. pyogenes streptokinase expression inhibitors, potency, dose response, plasminogen activation absorbance, OD405 (AID 1914).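 Also: secreted streptokinase activity via plasminogen activation per viability signal from cell pellet.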 Type of assay: functional, Streptococcus pyogenes M1 GAS.

In a further assay the test system is Streptococcus. Briefly: Group A Streptococcus viability loss, dose response, counter-screen for streptokinase expression inhibitor project, luminescence, BacTiterGlo (AID 1915).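 Also: potency for reduction of bacterial viability or growth.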 Type of assay: functional, organism-based.
Assay [10] concerns Streptococcus sp. 'group A'. Briefly: growth inhibition of control SK(-) GAS strain, dose response, counter-screen for streptokinase expression inhibitor project, luminescence, kanamycin, BacTiterGlo, confirmation (AID 1900). Type of assay: functional, organism-based.
Assay [11] has as its target Voltage-gated inwardly rectifying potassium channel KCNH2 (Homo sapiens, UniProt Q12809). The experiment in a line: hERG protection from proarrhythmic block, potency, dose response, cell-based, thallium flux (AID 2121). In kind it is ADME.

Activity calls are given as the source filed them. Rule as the data show it, for most assays here: actives have a measured EC50 and inactives only a lower limit.

T2 sequence (Q92731 whole entry): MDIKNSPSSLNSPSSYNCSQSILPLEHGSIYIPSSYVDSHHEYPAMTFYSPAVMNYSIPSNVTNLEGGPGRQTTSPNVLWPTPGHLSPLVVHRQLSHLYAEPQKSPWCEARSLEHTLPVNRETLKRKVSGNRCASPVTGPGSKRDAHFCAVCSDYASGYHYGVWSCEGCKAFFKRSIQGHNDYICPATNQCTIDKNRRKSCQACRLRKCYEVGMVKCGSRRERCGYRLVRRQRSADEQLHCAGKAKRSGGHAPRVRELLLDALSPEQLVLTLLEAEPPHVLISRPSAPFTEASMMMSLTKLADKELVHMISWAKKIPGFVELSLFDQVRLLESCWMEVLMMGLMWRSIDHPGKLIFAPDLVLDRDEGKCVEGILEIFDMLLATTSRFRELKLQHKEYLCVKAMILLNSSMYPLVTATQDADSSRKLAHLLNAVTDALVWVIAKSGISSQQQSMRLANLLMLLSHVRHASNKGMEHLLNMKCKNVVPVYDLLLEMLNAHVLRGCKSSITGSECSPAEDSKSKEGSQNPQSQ
Voltage-gated inwardly rectifying potassium channel KCNH2, sequence (Q12809 whole entry): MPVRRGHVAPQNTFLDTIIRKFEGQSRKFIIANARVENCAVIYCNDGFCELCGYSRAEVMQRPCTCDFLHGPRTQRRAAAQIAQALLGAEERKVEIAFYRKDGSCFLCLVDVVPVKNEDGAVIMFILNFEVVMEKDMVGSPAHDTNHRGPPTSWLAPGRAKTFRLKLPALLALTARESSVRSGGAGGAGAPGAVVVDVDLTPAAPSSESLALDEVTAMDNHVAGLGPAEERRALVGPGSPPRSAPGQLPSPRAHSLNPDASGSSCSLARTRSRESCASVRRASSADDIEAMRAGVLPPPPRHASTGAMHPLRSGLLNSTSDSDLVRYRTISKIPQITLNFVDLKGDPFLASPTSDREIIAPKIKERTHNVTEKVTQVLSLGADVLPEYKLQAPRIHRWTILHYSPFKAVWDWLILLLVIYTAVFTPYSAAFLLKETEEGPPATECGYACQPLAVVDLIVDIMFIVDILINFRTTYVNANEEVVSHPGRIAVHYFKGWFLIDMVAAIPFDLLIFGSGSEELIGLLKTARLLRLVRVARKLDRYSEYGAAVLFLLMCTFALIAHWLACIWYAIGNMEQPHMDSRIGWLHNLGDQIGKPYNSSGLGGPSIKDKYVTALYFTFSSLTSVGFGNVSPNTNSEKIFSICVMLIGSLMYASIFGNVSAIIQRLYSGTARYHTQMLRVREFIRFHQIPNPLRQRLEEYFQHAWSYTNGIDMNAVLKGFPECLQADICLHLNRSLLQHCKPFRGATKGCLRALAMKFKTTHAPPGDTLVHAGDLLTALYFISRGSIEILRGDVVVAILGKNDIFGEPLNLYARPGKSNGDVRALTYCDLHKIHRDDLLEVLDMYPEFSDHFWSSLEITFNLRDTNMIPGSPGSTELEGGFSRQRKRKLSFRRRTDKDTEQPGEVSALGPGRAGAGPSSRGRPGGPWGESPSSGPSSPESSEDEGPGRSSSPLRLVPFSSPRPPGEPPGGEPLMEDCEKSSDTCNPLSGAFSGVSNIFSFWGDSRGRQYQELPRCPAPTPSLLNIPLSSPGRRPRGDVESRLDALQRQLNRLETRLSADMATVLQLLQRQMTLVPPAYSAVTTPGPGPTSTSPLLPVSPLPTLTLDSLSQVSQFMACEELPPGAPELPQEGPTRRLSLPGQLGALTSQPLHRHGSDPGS

On to `O=C(O)c1nc(Cl)c(Cl)c(N/N=C/c2ccccc2)c1Cl`, for which, on NADPH oxidase 1, the IC50 (commonly the concentration at which inhibition is half-maximal) is on record as > 17 µM (not active).

Turning to `CN(C)CCCn1c(NC(=O)C2CCCCC2)nc2ccccc21`, in assay [1], the EC50 (as a rule, the concentration needed to bring the measured effect to its halfway point) was > 50 µM (not active).

For the compound `COc1ccccc1N1CCN(C(=O)c2ccc3nc(-c4ccco4)c(-c4ccco4)nc3c2)CC1`, the results for the IC50 on Estrogen receptor beta [2], against Estrogen receptor beta [3] and in the assay with H9c2 were 5.96 µM (active), 9.53 µM (not active) and 11.7 µM (active), respectively.

As for `CC(C)(C)c1ccc(C(=O)Nc2ccc(C(=O)NCc3cccnc3)cc2)cc1`, the EC50 with BJ [4] is 25.5 µM (active); in the assay on BJ [5] it was 0.549 µM (active); in the assay with BJ [6] it was 0.88 µM (inconclusive); in [7] it was > 150 µM (not active); with BJ [8], 0.515 µM (active). The IC50 in assay [9] was 0.177 µM (active).

Consider `COc1ccc(N2CCN(C(=S)NC(=O)c3cccs3)CC2)c([N+](=O)[O-])c1`, for which the EC50 at Streptokinase A is > 150 µM (not active); in the assay on Streptococcus, 24.5 µM (active); in assay [10] it was 9.37 µM (active); in assay [11], 12.2 µM (active).

(Values after ChEMBL document CHEMBL1201862, “PubChem BioAssay data set” (2004).)
